From ChEMBL document CHEMBL3872207, “Aromatic heterocyclic esters of podophyllotoxin exert anti-MDR activity in human leukemia K562/ADR cells via ROS/MAPK signaling pathways” (Eur J Med Chem, 2016)
Activity calls are given as the source filed them. The calls are words filed in the database; no cut-off is given here.

Experiments:
[1] = Antiproliferative activity against human K562 cells measured after 72 hrs by CCK8 assay; format: functional, cell-based; conditions: K562, 72 h
[2] = test system: K562; test: Resistance index, ratio of IC50 for human K562/ADR cells to IC50 for human K562 cells; format: functional
[3] = test system: K562/Adr; test: Induction of ROS generation in human K562/ADR cells at 0.1 uM measured after 24 hrs by DCFH-DA probe based inverted fluorescence microscopy; format: functional, cell-based
[4] = test system: K562/Adr; test: Induction of intracellular ROS accumulation in human K562/ADR cells assessed as fluorescence intensity at 0.1 uM treated 2 hrs post ROS scavenger NAC addition measured after 24 hrs by DCFH-DA probe based flow cytometry relative to vehicle-treated control; format: functional
[5] = test system: K562/Adr; test: Induction of ERK1/2 phosphorylation in human K562/ADR cells assessed as ratio of phosphorylated ERK1/2 to beta-actin level at 0.1 uM pretreated with MAPK inhibitor U0126 for 1 hr followed by compound addition after 48 hrs by Western blotting method (reference value: 0.22); format: cell-based
[6] = molecular target: T1, c-Jun N-terminal kinase, JNK (Homo sapiens) (UniProt P45983+P53779+P45984); test: Induction of JNK phosphorylation in human K562/ADR cells assessed as ratio of phosphorylated JNK to beta-actin level at 0.1 uM pretreated with MAPK inhibitor U0126 for 1 hr followed by compound addition after 48 hrs by Western blotting method (reference value: 0.46); format: cell-based
[7] = molecular target: T2, MAP kinase p38 (Homo sapiens) (UniProt O15264+Q15759+Q16539+P53778); test: Induction of P38 phosphorylation in human K562/ADR cells assessed as ratio of phosphorylated p38 to beta-actin level at 0.1 uM pretreated with MAPK inhibitor SP600125 for 1 hr followed by compound addition after 48 hrs by Western blotting method (reference value: 0.25); format: cell-based
[8] = molecular target: T1, c-Jun N-terminal kinase, JNK (Homo sapiens); test: Induction of JNK phosphorylation in human K562/ADR cells assessed as ratio of phosphorylated JNK to beta-actin level at 0.1 uM pretreated with ROS scavenger NAC for 2 hrs followed by compound addition after 48 hrs by Western blotting method (reference value: 0.46); format: cell-based
[9] = molecular target: T2, MAP kinase p38 (Homo sapiens); test: Induction of P38 phosphorylation in human K562/ADR cells assessed as ratio of phosphorylated p38 to beta-actin level at 0.1 uM pretreated with ROS scavenger NAC for 2 hrs followed by compound addition after 48 hrs by Western blotting method (reference value: 0.25); format: cell-based
[10] = Downregulation of CDK1 expression in human K562/ADR cells assessed as ratio of CDK1 to beta-actin level at 0.1 uM pretreated with MAPK inhibitor U0126 for 1 hr followed by compound addition measured after 48 hrs by Western blot analysis (reference value: 0.53); format: functional, cell-based
[11] = Downregulation of CDK1 expression in human K562/ADR cells assessed as ratio of CDK1 to beta-actin level at 0.1 uM pretreated with MAPK inhibitor SP600125for 1 hr followed by compound addition measured after 48 hrs by Western blot analysis (reference value: 0.53); format: functional, cell-based
[12] = Downregulation of CDK2 expression in human K562/ADR cells assessed as ratio of CDK2 to beta-actin level at 0.1 uM pretreated with ROS scavenger NAC for 2 hrs followed by compound addition measured after 48 hrs by Western blot analysis (reference value: 0.65); format: functional, cell-based
[13] = Downregulation of CyclinA expression in human K562/ADR cells assessed as ratio of CyclinA to beta-actin level at 0.1 uM pretreated with ROS scavenger NAC for 2 hrs followed by compound addition measured after 48 hrs by Western blot analysis (reference value: 0.64); format: functional, cell-based
[14] = Downregulation of CyclinB1 expression in human K562/ADR cells assessed as ratio of CyclinB1 to beta-actin level at 0.1 uM pretreated with ROS scavenger NAC for 2 hrs followed by compound addition measured after 48 hrs by Western blot analysis (reference value: 0.77); format: functional, cell-based
[15] = test system: K562/Adr; test: Induction of apoptosis in human K562/ADR cells assessed as early apoptotic cells at 0.1 uM pretreated with MAPK inhibitor U0126 for 1 hr followed by compound addition after 48 hrs by Annexin V-APC/7-AAD staining based flow cytometry (reference value: 2.74%); format: functional; parameters: scale not given: the % may be the effect or the level left
[16] = test system: K562/Adr; test: Induction of apoptosis in human K562/ADR cells assessed as necrotic cells at 0.1 uM pretreated with MAPK inhibitor U0126 for 1 hr followed by compound addition after 48 hrs by Annexin V-APC/7-AAD staining based flow cytometry (reference value: 0.26%); format: functional; parameters: scale not given: the % may be the effect or the level left
[17] = test system: K562/Adr; test: Induction of apoptosis in human K562/ADR cells assessed as ratio of cleaved caspase-3 to beta-actin level at 0.1 uM measured after 48 hrs by Western blot analysis (reference value: 0.06); format: functional
[18] = test system: K562/Adr; test: Induction of apoptosis in human K562/ADR cells assessed as ratio of cleaved caspase-8 to beta-actin level at 0.1 uM measured after 48 hrs by Western blot analysis (reference value: 0.07); format: functional
[19] = test system: K562/Adr; test: Induction of apoptosis in human K562/ADR cells assessed as ratio of cleaved PARP to beta-actin level at 0.1 uM measured after 48 hrs by Western blot analysis (reference value: 0.04); format: functional
[20] = test system: K562/Adr; test: Induction of apoptosis in human K562/ADR cells assessed as ratio of cleaved caspase-8 to beta-actin level at 0.1 uM pretreated with ROS scavenger NAC for 2 hrs followed by compound addition measured after 48 hrs by Western blot analysis (reference value: 0.07); format: functional
[21] = test system: K562/Adr; test: Induction of apoptosis in human K562/ADR cells assessed as ratio of cleaved caspase-9 to beta-actin level at 0.1 uM pretreated with ROS scavenger NAC for 2 hrs followed by compound addition measured after 48 hrs by Western blot analysis (reference value: 0.05); format: functional
[22] = test system: K562/Adr; test: Induction of apoptosis in human K562/ADR cells assessed as ratio of cleaved PARP to beta-actin level at 0.1 uM pretreated with ROS scavenger NAC for 2 hrs followed by compound addition measured after 48 hrs by Western blot analysis (reference value: 0.04); format: functional
[23] = test system: K562/Adr; test: Induction of apoptosis in human K562/ADR cells assessed as ratio of cleaved caspase-9 to beta-actin level at 0.1 uM pretreated with MAPK inhibitor U0126 for 1 hr followed by compound addition measured after 48 hrs by Western blot analysis (reference value: 0.05); format: functional
[24] = test system: K562/Adr; test: Induction of apoptosis in human K562/ADR cells assessed as ratio of cleaved caspase-3 to beta-actin level at 0.1 uM pretreated with MAPK inhibitor SB203580 for 1 hr followed by compound addition measured after 48 hrs by Western blot analysis (reference value: 0.06); format: functional
[25] = Downregulation of P-gp expression in human K562/ADR cells assessed as ratio of P-gp to beta-actin level at 0.1 uM measured after 48 hrs by Western blot analysis (reference value: 0.63); format: functional, cell-based
[26] = Downregulation of P-gp expression in human K562/ADR cells assessed as ratio of P-gp to beta-actin level at 0.1 uM pretreated with MAPK inhibitor SB203580 for 1 hr followed by compound addition measured after 48 hrs by Western blot analysis (reference value: 0.63); format: functional, cell-based

Q: Which IC50 [1] does the source give for `COc1cc([C@@H]2c3cc4c(cc3[C@H](OC(=O)c3ccco3)[C@H]3COC(=O)[C@H]23)OCO4)cc(OC)c1OC` here?
A: Its IC50 is 25 nM.

Q: What about the “Ratio IC50” value [2] of the same molecule?
A: The value was 1.28.

Q: And the Activity [3]?
A: The Activity was “Active”.

Q: And the “fold change (FC)” value [4]?
A: The value was 0.49.

Q: What about the Ratio [5] of the same molecule?
A: The Ratio was 0.01.

Q: What about the Ratio [6] of the same molecule?
A: Its Ratio is 0.35.

Q: What about the Ratio [7] of the same molecule?
A: Its Ratio is 0.19.

Q: What about the Ratio [8] of the same molecule?
A: Its Ratio is 0.51.

Q: And the Ratio [9]?
A: The Ratio was 0.29.

Q: What about the Ratio [10] of the same molecule?
A: Its Ratio is 0.26.

Q: What about the Ratio [11] of the same molecule?
A: Its Ratio is 0.19.

Q: What about the Ratio [12] of the same molecule?
A: The Ratio was 0.43.

Q: And the Ratio [13]?
A: The Ratio was 0.58.

Q: What about the Ratio [14] of the same molecule?
A: The Ratio was 0.66.

Q: What about the Activity [15] of the same molecule?
A: The Activity was 8.73%.

Q: What about the Activity [16] of the same molecule?
A: Its Activity is 3.32%.

Q: And the Ratio [17]?
A: The Ratio was 0.68.

Q: And the Ratio [18]?
A: The Ratio was 0.77.

Q: And the Ratio [19]?
A: Its Ratio is 0.84.

Q: And the Ratio [20]?
A: The Ratio was 0.15.

Q: What about the Ratio [21] of the same molecule?
A: Its Ratio is 0.1.

Q: And the Ratio [22]?
A: The Ratio was 0.13.

Q: What about the Ratio [23] of the same molecule?
A: The Ratio was 0.26.

Q: And the Ratio [24]?
A: Its Ratio is 0.52.

Q: What about the Ratio [25] of the same molecule?
A: Its Ratio is 0.07.

Q: What about the Ratio [26] of the same molecule?
A: Its Ratio is 0.34.
